US8158621B2, “Methods of treating or preventing autoimmune diseases with 2,4-pyrimidinediamine compounds” (Rigel Pharmaceuticals, Inc., priority 2002, dated 2012)

test system: Human Jurkat T-cells (clone N); test: Jurkat T-cell activation (anti-TCR, CD69 upregulation); format: cell-based; settings: not given
Outline: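 Readout is CD69 upregulation by flow cytometry (anti-CD69-APC, 20 min at 4 °C) after 20 h anti-TCR (C305, 500 ng/ml) stimulation at 37 °C.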

| SMILES | IC50 |
| --- | --- |
| O=C(COc1cccc(Nc2ncc(F)c(Nc3ccc4c(c3)OCCO4)n2)c1)NCC(O)CO (stereo not shown) [Compound R926782] | 1.22 µM |
| CNC(=O)COc1cc(Nc2ncc(F)c(Nc3ccc4c(c3)OCCO4)n2)ccc1OC [Compound R926828] | 1.01 µM |
| Oc1cccc(Nc2ncc(F)c(Nc3cccc(O)c3)n2)c1 [Compound R926461] | 3.39 µM |
| CNC(=O)COc1cccc(Nc2nc(Nc3cccc(C(C)(C)C)c3)ncc2F)c1 [Compound R940267] | > 10 µM |
| O=C(COc1cccc(Nc2ncc(F)c(Nc3ccc4c(c3)OCCO4)n2)c1)N1CCOCC1 [Compound R926484] | > 10 µM |
| OB(O)c1cccc(Nc2ncc(F)c(Nc3cccc(B(O)O)c3)n2)c1 [Compound R926836] | 14.5 µM |
| CNC(=O)COc1cccc(Nc2ncc(F)c(Nc3cnc4c(c3)OCCN4)n2)c1 [Compound R945263] | 4.47 µM |
| CCOC(=O)C(C)(C)Oc1cccc(Nc2ncc(F)c(Nc3ccc4cc[nH]c4c3)n2)c1 [Compound R926909] | 4.65 µM |

The remaining lines, values ahead:

| IC50 | SMILES |
| --- | --- |
| > 10 µM | COc1ccc(Nc2ncc([N+](=O)[O-])c(Nc3ccc(OC)c(OC)c3)n2)cc1OC [Compound R940089] |
| 4.36 µM | CC(CO)Nc1cccc(Nc2ncc(F)c(Nc3cccc(NC(C)CO)c3)n2)c1 (stereo not shown) [Compound R950171] |
| > 10 µM | COC(=O)c1ccc(Cn2ncc3ccc(Nc4ncc(F)c(Nc5ccc6c(c5)OCCO6)n4)cc32)c(OC)c1 [Compound R935320] |
| 3.61 µM | CNC(=O)COc1cccc(Nc2ncc(F)c(Nc3cccc(C(C)=NO)c3)n2)c1 [Compound R950373] |
| 1.8 µM | Fc1cnc(Nc2ccc3cn[nH]c3c2)nc1Nc1ccc2cn[nH]c2c1 [Compound R935188] |
| 17.9 µM | O=C(COc1cccc(Nc2ncc(F)c(Nc3cc(Cl)c(O)c(Cl)c3)n2)c1)N1CCNCC1 [Compound R950188] |
| 4.16 µM | CC(C)NC(=O)COc1cccc(Nc2ncc(F)c(Nc3ccc4c(c3)OCCO4)n2)c1 [Compound R926830] |
| 2.09 µM | Cc1cc(Nc2nc(Nc3cccc(OCC(=O)N4CCNCC4)c3)ncc2F)cc(C)c1O [Compound R945140] |
| 3.87 µM | Cn1ncc2cc(Nc3nc(Nc4cccc(O)c4)ncc3F)ccc21 [Compound R935204] |
| > 10 µM | COC(=O)c1cc2ccc(Nc3ncc(F)c(Nc4cccc(O)c4)n3)cc2[nH]1 [Compound R926903] |
| 2.67 µM | O=C(c1cc2cc(Nc3ncc(F)c(Nc4ccc5c(c4)OCCO5)n3)ccc2o1)N1CCCNCC1 [Compound R926767] |
| 12.2 µM | CNC(=O)COc1cccc(Nc2ncc(F)c(Nc3cc(C)ccc3Cl)n2)c1 [Compound R926840] |
| > 10 µM | O=C(COc1ccc(Nc2nc(Nc3cccc(O)c3)ncc2Br)cc1)NCC1CC1 [Compound R925842] |
| 3.77 µM | CCOC(=O)CNc1cccc(Nc2ncc(F)c(Nc3cccc(NCCO)c3)n2)c1 [Compound R950229] |

same assay, conditions: Homo sapiens, Jurkat

| SMILES | IC50 |
| --- | --- |
| COCCNc1ncc(F)c(Nc2ccc3c(c2)OCCO3)n1 [Compound R926229] | > 10 µM |
| Oc1cccc(Nc2ncc(F)c(NCc3csc4ccccc34)n2)c1 [Compound R945146] | > 10 µM |
| CCOC(=O)C1CCN(C(=O)c2cccc(Nc3nc(Nc4cccc(O)c4)ncc3F)c2)CC1 [Compound R926940] | > 10 µM |
| CC1(Cl)CC(Nc2ncc(F)c(Nc3ccc4c(c3)-n3ccnc3CO4)n2)=CC=C1O (stereo not shown) [Compound R935263] | 2.02 µM |
| Fc1cnc(NC(c2ccc(Cl)cc2)c2ccc(Cl)cc2)nc1NC(c1ccc(Cl)cc1)c1ccc(Cl)cc1 [Compound R935006] | > 10 µM |

More lines, now with the values ahead:

| IC50 | SMILES |
| --- | --- |
| > 10 µM | COC(=O)c1cc2cc(Nc3ncc(F)c(Nc4cccc(C(C)C)c4)n3)ccc2o1 [Compound R940283] |
| > 10 µM | Fc1cnc(Nc2ccc(C(F)(F)F)cc2)nc1Nc1ccc(C(F)(F)F)cc1 [Compound R926016] |
| > 10 µM | CCOc1ccc(Nc2ncc(F)c(Nc3ccc(OCC)cc3)n2)cc1 [Compound R070790, N2,N4-bis(4-ethoxyphenyl)-5-fluoro-2,4-pyrimidinediamine] |
| 7.36 µM | OB(O)c1cccc(Nc2nc(Nc3cccc(O)c3)ncc2F)c1 [Compound R926755] |
